Values of other authors, collected in publication PMC3197600 (PLoS Pathogens, 2011).

System: oseltamivir-resistant His274Tyr H1N1 infection
Details: human, in vivo; cited from earlier work

[H]/N=C(\N)N[C@H]1C=C(C(=O)O)O[C@@H]([C@H](OC)[C@H](O)COC(=O)CCCCCCC)[C@@H]1NC(C)=O [CS-8958, laninamivir octanoate]
effectiveness compared with oseltamivir: not significantly better than oseltamivir
